A word on the inhibition: it is the drop in the measured response relative to a control, in per cent.

The structures appear in SMILES notation.

Inhibition data for 16 compounds are collected here from patent US10501433B2, “Kynurenine-3-monooxygenase inhibitors, pharmaceutical compositions, and methods of use thereof” (CHDI Foundation, Inc., priority 2013, dated 2019).

The experiment deals with T1, KMO mouse enzyme (Mus musculus, UniProt Q91WN4).
T1 construct: KMO enzyme prepared at Evotec from mouse liver (4-6 weeks old) via mitochondria isolation; from tissue; host or cells: mouse liver (4-6 weeks old), isolated mitochondria
T1 sequence (Q91WN4 whole entry): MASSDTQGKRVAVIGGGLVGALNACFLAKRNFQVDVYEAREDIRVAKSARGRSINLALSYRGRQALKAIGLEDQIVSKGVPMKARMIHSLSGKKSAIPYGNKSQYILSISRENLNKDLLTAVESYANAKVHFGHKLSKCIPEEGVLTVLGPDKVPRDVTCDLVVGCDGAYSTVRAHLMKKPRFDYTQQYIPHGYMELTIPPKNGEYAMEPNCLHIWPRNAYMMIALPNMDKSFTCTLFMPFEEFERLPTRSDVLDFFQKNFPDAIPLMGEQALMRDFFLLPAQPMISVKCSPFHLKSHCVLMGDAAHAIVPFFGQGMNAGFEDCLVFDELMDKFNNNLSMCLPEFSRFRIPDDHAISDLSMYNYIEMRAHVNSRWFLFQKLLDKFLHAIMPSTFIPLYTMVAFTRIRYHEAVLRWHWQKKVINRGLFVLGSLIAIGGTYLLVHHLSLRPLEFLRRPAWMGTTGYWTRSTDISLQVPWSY
Put plainly: KMO enzyme assay monitoring L-Kynurenine hydroxylation to 3OH-KYN by LC/MS (protocols substantially similar to Biology Example 3). The settings on record: compound at 30 μM; KMO enzyme from mouse liver mitochondria; 100 μM L-Kynurenine. Format: biochemical. As to the method: A method of monitoring L-Kynurenine (KYN) hydroxylation to form 3-Hydroxy-Kynurenine (3OH-KYN) by LC/MS is described. Product is quantified by multiple reaction monitoring (MRM method).
• Compound: Stock concentrations: 10 mM in 100% DMSO • Enzyme: KMO enzyme prepared at Evotec from mouse liver (4-6 weeks old) via mitochondria isolation as described in the literature • Substrate: L-Kynurenine (Sigma: Cat #K3750, stock concentration: 10 mM in 100 mM potassium phosphate buffer, pH 7.4) Assay Conditions: • Buffer: 100 mM potassium phosphate, pH 7.4, 200 μM NADPH, 0.4 U/ml G6P-DH (Glucose 6-phosphate Dehydrogenase), 3 mM G6P (D-Glucose 6-phosphate) • Assay Volume: 40 μl • Plate Format: 384 well plate, transparent (Matrix) • Read-Out: product (3OH-KYN) quantification using product specific MRM • Reader: LC/MS/MS Assay Protocol: • prepare serial dilution (factor 3) of compound in 100% DMSO (top concentration=10 mM, 100% DMSO) • [[…]: 10 mM; 3.33 mM; 1.11 mM; 0.37 mM; 0.12 mM; 0.04 mM; 0.0137 mM; 0.0045 mM, […]] • prepare 3.33-fold concentrated solution of each compound concentration (top concentration 300 μM, 3% DMSO) in assay buffer • [concentrations: 300 μM; 100 μM; 33.3 μM; 11.1 μM; 3.70 μM; 1.23 μM; 0.41 μM; 0.137 μM] • prepare substrate (10 mM) at concentration of 1 mM in assay buffer • assay mix: 4 μl compound/well of each concentration+24 μl assay buffer/well+8 μl KMO mouse enzyme+4 μl 1 mM substrate (final concentration=100 μM) • [final compound top concentration: 30 μM; 0.3% DMSO] • [final compound bottom concentration: 0.0137 μM; 0.3% DMSO] • positive control: 4 μl 50 μM FCE28833 in assay buffer, 0.5% DMSO [final assay concentration=5 μM]+24 μl assay buffer/well+8 μl KMO mouse enzyme+4 μl mM substrate [final concentration=100 μM] • negative control: 28 μl assay buffer/well+8 μl KMO mouse enzyme+4 μl 1 mM substrate • [final concentration=100 μM] • incubate 40 min at RT • add 40 μl/well 10% trichloro acetic acid in water to stop the assay and precipitate protein • centrifuge plate for 3 min at 4000 rpm • product detection by LC/MS (injection of 20 μl/well, 2 fold overfill of the 10 μl sample loop) Data Analysis:
IC50's are calculated using automated fitting algorithm (A+ Analysis).
Using the assay protocols substantially similar to those of Biology Example 3, the following compounds were tested.
Take `CC1Oc2cc(C(=O)[C@H]3C[C@@H]3C(=O)O)cc(Cl)c2O1` (stereo partly drawn) [Example 1, Method 10, (1S,2S)-2-(7-Chloro-2-methyl-2H-1,3-benzodioxole-5-carbonyl)cyclopropane-1-carboxylic acid]: the inhibition at 30 µM was found to be 102%. Then `O=C(O)[C@H]1C[C@@H]1C(=O)c1cc(Cl)c2c(c1)CCO2` [Example 1, Method 1, (1S, 2S)-2-(7-chloro-2,3-dihydro-1-benzofuran-5-carbonyl)cyclopropane-1-carboxylic acid], with 100%; and `Cn1c(=O)oc2cc(C(=O)[C@H]3C[C@@H]3C(=O)O)cc(Cl)c21` [Example 1, Method 3, (1S,2S)-2-(4-Chloro-3-methyl-2-oxo-2,3-dihydro-1,3-benzoxazole-6-carbonyl)cyclopropane-1-carboxylic acid], with 93.5%; and `CC1Cc2cc(C(=O)[C@H]3C[C@@H]3C(=O)O)ccc2O1` (stereo partly drawn) [Example 1, Method 5, (1S,2S)-2-(2-methyl-2,3-dihydro-1-benzofuran-5-carbonyl)cyclopropane-1-carboxylic acid], with 103%. Under `CC1COc2c(Cl)cc(C(=O)[C@H]3C[C@@H]3C(=O)O)cc2C1` (stereo partly drawn) [Example 1, Method 7, (1S,2S)-2-(8-Chloro-3-methyl-3,4-dihydro-2H-1-benzopyran-6-carbonyl)cyclo-propane-1-carboxylic acid] stands 101%; under `O=C(O)[C@H]1C[C@@H]1C(=O)c1cc(Cl)c2c(c1)OCO2` [Example 1, Method 9, (1S,2S)-2-(7-Chloro-2H-1,3-benzodioxole-5-carbonyl)cyclopropane-1-carboxylic acid], 102%. Under `O=C(O)[C@H]1C[C@@H]1C(=O)c1ccc2c(c1)SCCO2` [Example 3, Method 5, (1S,2S)-2-(2,3-dihydro-1,4-benzoxathiine-6-carbonyl)cyclopropane-1-carboxylic acid] stands 101%; under `O=C(O)[C@H]1C[C@@H]1C(=O)c1ccc2c(c1)CCCO2` [Example 2, Method 4, (1S,2S)-2-(3,4-dihydro-2H-1-benzopyran-6-carbonyl)cyclopropane-1-carboxylic acid], 101%. In the case of `O=C(O)[C@H]1C[C@@H]1C(=O)c1ccc2c(c1)OCCO2` [Example 1, Method 4, (1S,2S)-2-(2,3-Dihydro-1,4-benzodioxine-6-carbonyl)cyclopropane-1-carboxylic acid], the inhibition at 30 µM was found to be 102%.

For the compound `O=C(O)[C@H]1C[C@@H]1C(=O)c1ccc2c(c1)OCO2` [Example 4, Method 5, (1S,2S)-2-(2H-1,3-benzodioxole-5-carbonyl)cyclopropane-1-carboxylic acid], the inhibition at 30 µM was determined as 94.1%. Then `CC1Cc2cc(C(=O)[C@H]3C[C@@H]3C(=O)O)cc(Cl)c2O1` (stereo partly drawn) [Example 1, Method 6, (1S,2S)-2-(7-chloro-2-methyl-2,3-dihydro-1-benzofuran-5-carbonyl)-cyclo-propane-1-carboxylic acid], with 100%; and `O=C(O)[C@H]1C[C@@H]1C(=O)c1ccc2c(c1)CCO2` [Example 2, Method 1, (1S,2S)-2-(2,3-dihydro-1-benzofuran-5-carbonyl)cyclopropane-1-carboxylic acid], with 98.7%. Then `O=C(O)[C@H]1C[C@@H]1C(=O)c1cc(Cl)c2c(c1)OCCO2` [Example 1, Method 8, (1S,2S)-2-(8-Chloro-2,3-dihydro-1,4-benzodioxine-6-carbonyl)cyclopropane-1-carboxylic acid], with 102%. Under `O=C(O)[C@H]1C[C@@H]1C(=O)c1cc(Cl)c2c(c1)CCCO2` [Example 1, Method 2, (1S, 2S)-2-(8-Chloro-3,4-dihydro-2H-1-benzopyran-6-carbonyl)cyclopropane-1-carboxylic acid] stands 100%.

`Cn1c(=O)oc2c(Cl)cc(C(=O)[C@H]3C[C@@H]3C(=O)O)cc21` [Example 2, Method 3, (1S,2S)-2-(7-Chloro-3-methyl-2-oxo-2,3-dihydro-1,3-benzoxazole-5-carbonyl)cyclopropane-1-carboxylic acid]: the inhibition at 30 µM is 101%. Then `CC1(C)Cc2cc(C(=O)[C@H]3C[C@@H]3C(=O)O)ccc2O1` [Example 2, Method 5, (1S,2S)-2-(2,2-Dimethyl-2,3-dihydro-1-benzofuran-5-carbonyl)cyclopropane-1-carboxylic acid], with 64.8%.
